Laboratory results as given in ChEMBL document CHEMBL1127957, “Synthesis and glutamate antagonist activity of 4-phosphonoalkylquinoline derivatives: A novel class of non-NMDA antagonist” (Bioorg Med Chem Lett, 1994).
pIC50, pKi: −log10 of the molar value.

Tests used:
[1] = Displacement of [3H]CNQX from Ionotropic glutamate receptor kainate/Ionotropic glutamate receptor AMPA in rat cortical membranes; type: cell membranes, Membrane
[2] = Tested for its ability to displace [3H]glutamate from NMDA receptor
[3] = species: Rattus norvegicus; test: Compound was tested for the ability to inhibit kainic acid (KA)-induced inward currents in Xenopus oocytes injected with poly {A+) mRNA from rats; type: functional
[4] = molecular target: Glutamate receptor ionotropic, NMDA 1 (Rattus norvegicus, UniProt P35439); test: Binding affinity at glycine co-agonist site of rat NMDA receptor
[5] = species: Rattus norvegicus; test: Compound was tested for its ability to inhibit kainic acid (KA)-induced inward currents in Xenopus oocytes injected with poly {A+) mRNA from rats; type: functional

Structure (SMILES) | pIC50 [1] | pIC50 [2] | pKi [3] | pIC50 [4] | pKi [5]
N#Cc1cc2c(cc1[N+](=O)[O-])=NC(=O)C(=O)N=2 | 6.89 |  |  | 5.10 | 
NC(Cc1cc(I)ccc1CCP(=O)(O)O)C(=O)O (stereo unspecified) | 5.14 | < 3.52 |  | 4.09 | 5.46
O=P(O)(O)Cc1cc(O)nc2cc(Cl)c(Cl)cc12 | 4.82 | < 4.00 | 5.02 | 4.10 | 
O=C(O)c1cc(CCP(=O)(O)O)c2ccc(Cl)cc2n1 | 3.42 | < 3.00 | 3.35 | < 3.00 | 
O=P(O)(O)Cc1cc(O)nc2cc(Cl)cc(Cl)c12 | 4.59 | < 4.00 | 4.74 | 4.54 | 
O=P(O)(O)Cc1cc(O)nc2cc(I)ccc12 | 4.46 | 4.46 | 4.81 | 4.43 | 
O=[N+]([O-])c1c(Cl)ccc2nc(O)cc(CP(=O)(O)O)c12 | < 3.00 | < 3.00 | < 3.52 | < 3.00 | 
O=[N+]([O-])c1c(Cl)ccc2c(CP(=O)(O)O)cc(O)nc12 | 3.52 | < 3.00 |  | < 3.00 | 

Other lines, results leading:

pIC50 [1] | pIC50 [2] | pKi [3] | pIC50 [4] | pKi [5] | Structure (SMILES)
4.04 | 3.22 |  |  |  | O=P(O)(O)CCc1cc(O)nc2cc(Cl)ccc12
4.23 | 4.52 | 4.49 | 5.00 |  | O=P(O)(O)Cc1cc(O)nc2cc(Cl)ccc12
 | < 3.52 | < 3.00 | < 3.00 |  | O=P(O)(O)c1cc(O)nc2cc(Cl)ccc12
4.21 |  | 3.88 | 4.16 |  | O=C(O)c1cc(CP(=O)(O)O)c2ccc(Cl)cc2n1
